# Test results taken from US10231453B2, “5-substituted imidazole derivatives” (BAYER CROPSCIENCE AKTIENGESELLSCHAFT, priority 2015, dated 2019).
# Tested on: not listed separately
# Assay: Measurement of LogP values by HPLC on reversed phase columns (EEC directive 79/831 Annex V.A8)
# Assay type: physicochemical
# Details: method [a]: LC-UV, acidic range, 0.1% formic acid in water and acetonitrile as eluent; Table 1
# Protocol: Measurement of Log P values was performed as outlined above.
row,SMILES,chromatographic logP
1,OC(Cc1cccnc1Cl)(Cn1cncc1Br)C1(Cl)CC1 (centres unmarked) [Example I-25],1.56
2,CSc1cncn1CC(O)(Cc1ccccc1Cl)C1(Cl)CC1 (centres unmarked) [Example I-22],2.08
3,N#Cc1cncn1CC(O)(Cc1cc(F)cc(F)c1)C1(Cl)CC1 (centres unmarked) [Example I-156],2.86
4,N#Cc1cncn1CC(O)(Cc1ccncc1C(F)(F)F)C1(Cl)CC1 (centres unmarked) [Example I-92],2.18

# Tested on: Alternaria brassicae
# Assay: In vivo preventive test on Alternaria brassicae (leaf spot on radish), Examples A and R1
# Details: Alternaria brassicae, 144 h, 500 ppm of active ingredient, preventive spray, evaluated 6 days after inoculation, read-out: efficacy
row,SMILES,pest or weed control at 500 ppm [%]
1,CSc1cncn1CC(O)(Cc1ccccc1Cl)C1(Cl)CC1 (centres unmarked) [Example I-22],80 to 89
2,OC(Cc1ccc(Cl)cc1Cl)(Cn1cncc1Cl)C1(Cl)CC1 (centres unmarked) [Example I-69],70 to 79
3,N#Cc1cncn1CC(O)(Cc1ccccc1Br)C1(Cl)CC1 (centres unmarked) [Example I-40],80 to 89

# Tested on: Botrytis cinerea
# Assay: In vivo preventive test on Botrytis cinerea (grey mould) on gherkin, Examples B, Q1 and R2
# Details: Botrytis cinerea, 500 ppm of active ingredient, preventive spray, evaluated 4 to 5 days after inoculation, read-out: efficacy
row,SMILES,pest or weed control at 500 ppm [%]
1,OC(Cc1ccc(F)cc1F)(Cn1cncc1Cl)C1(Cl)CC1 (centres unmarked) [Example I-126],90 to 100
2,OC(Cc1cccnc1Cl)(Cn1cncc1Br)C1(Cl)CC1 (centres unmarked) [Example I-25],90 to 100
3,OC(Cc1ccc(Cl)cc1Cl)(Cn1cncc1Cl)C1(Cl)CC1 (centres unmarked) [Example I-69],80 to 89
4,N#Cc1cncn1CC(O)(Cc1ccccc1Br)C1(Cl)CC1 (centres unmarked) [Example I-40],90 to 100

# Tested on: Puccinia recondita
# Assay: In vivo preventive test on Puccinia recondita (brown rust on wheat), Examples C and R3
# Details: Puccinia recondita, 264 h; 500 ppm of active ingredient; wheat, preventive spray, evaluated 11 days after inoculation; read-out: efficacy
row,SMILES,pest or weed control at 500 ppm [%]
1,OC(Cc1ccc(F)cc1F)(Cn1cncc1Cl)C1(Cl)CC1 (centres unmarked) [Example I-126],90 to 100
2,Cc1cc(F)ccc1CC(O)(Cn1cncc1C#N)C1(Cl)CC1 (centres unmarked) [Example I-153],90 to 100
3,OC(Cc1cccnc1Cl)(Cn1cncc1Br)C1(Cl)CC1 (centres unmarked) [Example I-25],80 to 89
4,CSc1cncn1CC(O)(Cc1ccccc1Cl)C1(Cl)CC1 (centres unmarked) [Example I-22],90 to 100
5,OC(Cc1ccc(Cl)cc1Cl)(Cn1cncc1Cl)C1(Cl)CC1 (centres unmarked) [Example I-69],80 to 89
6,N#Cc1cncn1CC(O)(Cc1cc(F)cc(F)c1)C1(Cl)CC1 (centres unmarked) [Example I-156],90 to 100
7,N#Cc1cncn1CC(O)(Cc1ccccc1Br)C1(Cl)CC1 (centres unmarked) [Example I-40],80 to 89
8,N#Cc1cncn1CC(O)(Cc1ccncc1C(F)(F)F)C1(Cl)CC1 (centres unmarked) [Example I-92],80 to 89

# Tested on: Pyrenophora teres
# Assay: In vivo preventive test on Pyrenophora teres (net blotch on barley), Examples D, Q2 and R4
# Details: Pyrenophora teres, 336 h, 500 ppm of active ingredient, preventive spray, evaluated 14 days after inoculation, read-out: efficacy
row,SMILES,pest or weed control at 500 ppm [%]
1,OC(Cc1ccc(F)cc1F)(Cn1cncc1Cl)C1(Cl)CC1 (centres unmarked) [Example I-126],90 to 100
2,Cc1cc(F)ccc1CC(O)(Cn1cncc1C#N)C1(Cl)CC1 (centres unmarked) [Example I-153],80 to 89
3,OC(Cc1cccnc1Cl)(Cn1cncc1Br)C1(Cl)CC1 (centres unmarked) [Example I-25],80 to 89
4,CSc1cncn1CC(O)(Cc1ccccc1Cl)C1(Cl)CC1 (centres unmarked) [Example I-22],80 to 89
5,OC(Cc1ccc(Cl)cc1Cl)(Cn1cncc1Cl)C1(Cl)CC1 (centres unmarked) [Example I-69],80 to 89
6,N#Cc1cncn1CC(O)(Cc1cc(F)cc(F)c1)C1(Cl)CC1 (centres unmarked) [Example I-156],80 to 89
7,N#Cc1cncn1CC(O)(Cc1ccccc1Br)C1(Cl)CC1 (centres unmarked) [Example I-40],70 to 79

# Tested on: Septoria tritici
# Assay: In vivo preventive test on Septoria tritici (leaf spot on wheat), Examples E, Q3 and R5
# Details: Zymoseptoria tritici, 576 h, 500 ppm of active ingredient; wheat, preventive spray, evaluated 24 days after inoculation; read-out: efficacy
row,SMILES,pest or weed control at 500 ppm [%]
1,OC(Cc1ccc(F)cc1F)(Cn1cncc1Cl)C1(Cl)CC1 (centres unmarked) [Example I-126],90 to 100
2,Cc1cc(F)ccc1CC(O)(Cn1cncc1C#N)C1(Cl)CC1 (centres unmarked) [Example I-153],90 to 100
3,OC(Cc1cccnc1Cl)(Cn1cncc1Br)C1(Cl)CC1 (centres unmarked) [Example I-25],90 to 100
4,CSc1cncn1CC(O)(Cc1ccccc1Cl)C1(Cl)CC1 (centres unmarked) [Example I-22],90 to 100
5,OC(Cc1ccc(Cl)cc1Cl)(Cn1cncc1Cl)C1(Cl)CC1 (centres unmarked) [Example I-69],80 to 89
6,N#Cc1cncn1CC(O)(Cc1cc(F)cc(F)c1)C1(Cl)CC1 (centres unmarked) [Example I-156],90 to 100
7,N#Cc1cncn1CC(O)(Cc1ccccc1Br)C1(Cl)CC1 (centres unmarked) [Example I-40],90 to 100
8,N#Cc1cncn1CC(O)(Cc1ccncc1C(F)(F)F)C1(Cl)CC1 (centres unmarked) [Example I-92],90 to 100

# Tested on: Sphaerotheca fuliginea
# Assay: In vivo preventive test on Sphaerotheca fuliginea (powdery mildew on cucurbits), Examples F and R6
# Details: Podosphaera fuliginea, 360 h; 500 ppm of active ingredient; gherkin, preventive spray, evaluated 15 days after inoculation; read-out: efficacy
row,SMILES,pest or weed control at 500 ppm [%]
1,OC(Cc1ccc(F)cc1F)(Cn1cncc1Cl)C1(Cl)CC1 (centres unmarked) [Example I-126],90 to 100
2,Cc1cc(F)ccc1CC(O)(Cn1cncc1C#N)C1(Cl)CC1 (centres unmarked) [Example I-153],90 to 100
3,OC(Cc1cccnc1Cl)(Cn1cncc1Br)C1(Cl)CC1 (centres unmarked) [Example I-25],90 to 100
4,CSc1cncn1CC(O)(Cc1ccccc1Cl)C1(Cl)CC1 (centres unmarked) [Example I-22],90 to 100
5,OC(Cc1ccc(Cl)cc1Cl)(Cn1cncc1Cl)C1(Cl)CC1 (centres unmarked) [Example I-69],90 to 100
6,N#Cc1cncn1CC(O)(Cc1cc(F)cc(F)c1)C1(Cl)CC1 (centres unmarked) [Example I-156],90 to 100
7,N#Cc1cncn1CC(O)(Cc1ccccc1Br)C1(Cl)CC1 (centres unmarked) [Example I-40],90 to 100
8,N#Cc1cncn1CC(O)(Cc1ccncc1C(F)(F)F)C1(Cl)CC1 (centres unmarked) [Example I-92],90 to 100

# Tested on: Uromyces appendiculatus
# Assay: In vivo preventive test on Uromyces appendiculatus (bean rust), Examples G and R7
# Details: 264 h, 500 ppm of active ingredient, bean, preventive spray, evaluated 11 days after inoculation, read-out: efficacy
row,SMILES,pest or weed control at 500 ppm [%]
1,OC(Cc1ccc(F)cc1F)(Cn1cncc1Cl)C1(Cl)CC1 (centres unmarked) [Example I-126],90 to 100
2,Cc1cc(F)ccc1CC(O)(Cn1cncc1C#N)C1(Cl)CC1 (centres unmarked) [Example I-153],90 to 100
3,OC(Cc1cccnc1Cl)(Cn1cncc1Br)C1(Cl)CC1 (centres unmarked) [Example I-25],90 to 100
4,CSc1cncn1CC(O)(Cc1ccccc1Cl)C1(Cl)CC1 (centres unmarked) [Example I-22],90 to 100
5,OC(Cc1ccc(Cl)cc1Cl)(Cn1cncc1Cl)C1(Cl)CC1 (centres unmarked) [Example I-69],90 to 100
6,N#Cc1cncn1CC(O)(Cc1cc(F)cc(F)c1)C1(Cl)CC1 (centres unmarked) [Example I-156],90 to 100
7,N#Cc1cncn1CC(O)(Cc1ccccc1Br)C1(Cl)CC1 (centres unmarked) [Example I-40],90 to 100
8,N#Cc1cncn1CC(O)(Cc1ccncc1C(F)(F)F)C1(Cl)CC1 (centres unmarked) [Example I-92],90 to 100

# Tested on: Alternaria solani
# Assay: In vivo preventive Alternaria test (tomatoes), Example H
# Details: 72 h, 100 ppm of active ingredient, preventive spray, evaluated 3 days after inoculation, read-out: efficacy
row,SMILES,pest or weed control at 100 ppm [%]
1,OC(Cc1ccc(F)cc1F)(Cn1cncc1Cl)C1(Cl)CC1 (centres unmarked) [Example I-126],90 to 100
2,Cc1cc(F)ccc1CC(O)(Cn1cncc1C#N)C1(Cl)CC1 (centres unmarked) [Example I-153],90 to 100
3,OC(Cc1ccc(Cl)cc1Cl)(Cn1cncc1Cl)C1(Cl)CC1 (centres unmarked) [Example I-69],90 to 100
4,N#Cc1cncn1CC(O)(Cc1ccccc1Br)C1(Cl)CC1 (centres unmarked) [Example I-40],90 to 100

# Tested on: Phakopsora pachyrhizi
# Assay: In vivo preventive Phakopsora test (soybeans), Example I
# Details: 168 h, 100 ppm of active ingredient, preventive spray, evaluated 7 days after inoculation, read-out: efficacy
row,SMILES,pest or weed control at 100 ppm [%]
1,OC(Cc1ccc(F)cc1F)(Cn1cncc1Cl)C1(Cl)CC1 (centres unmarked) [Example I-126],90 to 100
2,Cc1cc(F)ccc1CC(O)(Cn1cncc1C#N)C1(Cl)CC1 (centres unmarked) [Example I-153],90 to 100
3,OC(Cc1ccc(Cl)cc1Cl)(Cn1cncc1Cl)C1(Cl)CC1 (centres unmarked) [Example I-69],90 to 100
4,N#Cc1cncn1CC(O)(Cc1ccccc1Br)C1(Cl)CC1 (centres unmarked) [Example I-40],90 to 100

# Tested on: Blumeria graminis fsp. hordei
# Assay: In vivo preventive Blumeria test (barley), Example K
# Details: 168 h, 500 ppm of active ingredient, preventive spray, evaluated 7 days after inoculation, read-out: efficacy
# Excerpt: After the spray coating has been dried, the plants are dusted with spores of Blumeria graminis fsp. hordei.
row,SMILES,pest or weed control at 500 ppm [%]
1,OC(Cc1ccc(F)cc1F)(Cn1cncc1Cl)C1(Cl)CC1 (centres unmarked) [Example I-126],90 to 100
2,OC(Cc1cccnc1Cl)(Cn1cncc1Br)C1(Cl)CC1 (centres unmarked) [Example I-25],70 to 79
3,CSc1cncn1CC(O)(Cc1ccccc1Cl)C1(Cl)CC1 (centres unmarked) [Example I-22],90 to 100
4,N#Cc1cncn1CC(O)(Cc1cc(F)cc(F)c1)C1(Cl)CC1 (centres unmarked) [Example I-156],90 to 100
5,N#Cc1cncn1CC(O)(Cc1ccccc1Br)C1(Cl)CC1 (centres unmarked) [Example I-40],90 to 100
6,N#Cc1cncn1CC(O)(Cc1ccncc1C(F)(F)F)C1(Cl)CC1 (centres unmarked) [Example I-92],90 to 100

# Tested on: Fusarium graminearum
# Assay: whole plant or invertebrate
# Assay type: in vivo
# Details: in Hordeum vulgare, 120 h, read-out: efficacy
row,SMILES,pest or weed control at 500 ppm [%]
1,OC(Cc1ccc(F)cc1F)(Cn1cncc1Cl)C1(Cl)CC1 (centres unmarked) [Example I-126],90 to 100
2,N#Cc1cncn1CC(O)(Cc1cc(F)cc(F)c1)C1(Cl)CC1 (centres unmarked) [Example I-156],80 to 89

# Tested on: Pyricularia oryzae
# Assay: whole plant or invertebrate
# Assay type: in vivo
# Details: 192 h, read-out: efficacy
row,SMILES,pest or weed control at 500 ppm [%]
1,OC(Cc1ccc(F)cc1F)(Cn1cncc1Cl)C1(Cl)CC1 (centres unmarked) [Example I-126],90 to 100
2,OC(Cc1cccnc1Cl)(Cn1cncc1Br)C1(Cl)CC1 (centres unmarked) [Example I-25],70 to 79
3,CSc1cncn1CC(O)(Cc1ccccc1Cl)C1(Cl)CC1 (centres unmarked) [Example I-22],80 to 89
4,N#Cc1cncn1CC(O)(Cc1ccccc1Br)C1(Cl)CC1 (centres unmarked) [Example I-40],70 to 79
5,N#Cc1cncn1CC(O)(Cc1ccncc1C(F)(F)F)C1(Cl)CC1 (centres unmarked) [Example I-92],80 to 89

# Tested on: Venturia inaequalis
# Assay: In vivo preventive Venturia test (apples), Example J
# Details: 240 h, read-out: efficacy
# Protocol: After the spray coating has dried on, the plants are inoculated with an aqueous conidia suspension of the causal agent of apple scab (Venturia inaequalis) and then remain for 1 day in an incubation cabinet at approximately 20° C. and a relative atmospheric humidity of 100%.
# The plants are then placed in a greenhouse at approximately 21° C. and a relative atmospheric humidity of approximately 90%.
# The test is evaluated 10 days after the inoculation.
row,SMILES,pest or weed control at 100 ppm [%]
1,Cc1cc(F)ccc1CC(O)(Cn1cncc1C#N)C1(Cl)CC1 (centres unmarked) [Example I-153],80 to 89
2,OC(Cc1ccc(Cl)cc1Cl)(Cn1cncc1Cl)C1(Cl)CC1 (centres unmarked) [Example I-69],90 to 100
3,N#Cc1cncn1CC(O)(Cc1ccccc1Br)C1(Cl)CC1 (centres unmarked) [Example I-40],80 to 89
